The values that follow are results of earlier work, collected in patent US9459262B2, “Systems and methods for determining the percentage of glycated hemoglobin” (Relia Diagnostic Systems, Inc., priority 2009, dated 2016).

SMILES strings stand for the structures.

Details in one data set: not given
As for `Cc1ccccc1B(O)O` [2-Methylphenylboronic acid], the “Ionization constant (pKa)” value was 9.7.
`O=[N+]([O-])c1ccccc1B(O)O` [2-Nitrophenylboronic acid]: the “Ionization constant (pKa)” value is on record as 9.2.
In the case of `OB(O)c1cc(C(F)(F)F)cc(C(F)(F)F)c1` [3,5-Bis(trifluoromethyl)phenylboronic acid], the “Ionization constant (pKa)” value is 7.2.
On to `OB(O)c1cc(Cl)cc(Cl)c1` [3,5-Dichlorophenylboronic acid], for which the “Ionization constant (pKa)” value is 7.4.
In the case of `Cc1cc(C)cc(B(O)O)c1` [3,5-Dimethylphenylboronic acid], the “Ionization constant (pKa)” value is 9.1.
As to `COC(=O)c1cc(B(O)O)cc([N+](=O)[O-])c1` [3-Methoxycarbonyl-5-nitrophenylboronic acid], the “Ionization constant (pKa)” value is given as 6.9.
For the compound `COc1cccc(B(O)O)c1` [3-Methoxyphenylboronic acid], the “Ionization constant (pKa)” value is given as 8.7.
As to `Cc1cccc(B(O)O)c1` [3-Methylphenylboronic acid], the “Ionization constant (pKa)” value is 9.0.
Consider `OB(O)c1cccnc1` [3-Pyridylboronic acid], for which the “Ionization constant (pKa)” value is reported as 4.0.
With `OB(O)c1ccc(Br)cc1` [4-Bromophenylboronic acid], the “Ionization constant (pKa)” value is recorded as 8.6.
As for `O=C(O)c1ccc(B(O)O)cc1` [4-Carboxyphenylboronic acid], the “Ionization constant (pKa)” value is listed as 8.4.
With `OB(O)c1ccc(F)cc1` [4-Fluorophenylboronic acid], the “Ionization constant (pKa)” value is 9.1.
For `COc1ccc(B(O)O)cc1` [4-Methoxyphenylboronic acid], the “Ionization constant (pKa)” value was 9.3.
On to `Cc1ccc(B(O)O)cc1` [4-Methylphenylboronic acid], for which the “Ionization constant (pKa)” value is recorded as 9.3.
`O=[N+]([O-])c1ccc(B(O)O)cc1` [4-Nitrophenylboronic acid]: the “Ionization constant (pKa)” value is reported as 7.1.
With `OB(O)c1cccc2cccnc12` [8-Quinolinylboronic acid], the “Ionization constant (pKa)” value is recorded as 4.0.
As to `CB(O)O` [Methylboronic acid], the “Ionization constant (pKa)” value was 10.4.

The data set is the same for the next values; noted with them: second value.
Regarding `OB(O)c1cccnc1` [3-Pyridylboronic acid], the “Ionization constant (pKa)” value is 8.2.
Take `OB(O)c1cccc2cccnc12` [8-Quinolinylboronic acid]: the “Ionization constant (pKa)” value is 10.
